Measurements taken from the NIST ThermoML archive (doi:10.1016/j.tca.2011.02.027).

Tests used:
[1] = Crystal; DTA
[2] = molar heat capacity at constant pressure; conditions: 101.33 kPa, Liquid, Large sample (1 g) DSC
[3] = molar heat capacity at constant pressure; xn = mol fraction of the nth substance listed; conditions: 101.3 kPa, Liquid, Large sample (1 g) DSC

CCCCn1cc[n+](C)c1C.F[P-](F)(F)(F)(F)F [1-butyl-2,3-dimethylimidazolium hexafluorophosphate]
Conditions	Normal melting temperature [°C]
[1]	38.00

[2]
Conditions	molar heat capacity at constant pressure [J/K/mol]
323.2 K	439.3
328.2 K	442.9
333.2 K	446.2
338.2 K	449.4
343.2 K	452.7
348.2 K	457
353.2 K	460.1
358.2 K	464.4
363.2 K	468
368.2 K	471.6
373.2 K	475.1
378.2 K	478.9
383.2 K	482.6

CCCCn1cc[n+](C)c1C.F[P-](F)(F)(F)(F)F [1-butyl-2,3-dimethylimidazolium hexafluorophosphate] + O
molar heat capacity at constant pressure [J/K/mol], [3]
Conditions	x1 = 0.8	x1 = 0.85	x1 = 0.9	x1 = 0.95	x1 = 1
303.2 K	387	396.4	407.2	418.3	–
308.2 K	389.2	398.4	409.4	420.5	–
313.2 K	391.2	400.5	411.9	423.3	–
318.2 K	393.4	402.7	414.5	426	–
323.2 K	395.9	405.5	417.7	429.4	439.3
328.2 K	398.9	408.8	421.3	433.2	442.9
333.2 K	401.8	411.9	424.7	436.7	446.2
338.2 K	404.5	414.9	428	440.1	449.4
343.2 K	407.5	417.9	431.2	443.5	452.7
348.2 K	411.1	421.7	435.2	447.6	457
353.2 K	414.1	424.8	438.3	450.9	460.1
358.2 K	–	–	–	–	464.4
363.2 K	–	–	–	–	468
368.2 K	–	–	–	–	471.6
373.2 K	–	–	–	–	475.1
378.2 K	–	–	–	–	478.9
383.2 K	–	–	–	–	482.6

CCCCn1cc[n+](C)c1C.F[B-](F)(F)F [1-butyl-2,3-dimethylimidazolium tetrafluoroborate]
Conditions	Normal melting temperature [°C]
[1]	32.00

[2]
Conditions	molar heat capacity at constant pressure [J/K/mol]
313.2 K	397.3
318.2 K	398.8
323.2 K	400.6
328.2 K	403.3
333.2 K	405.4
338.2 K	407.8
343.2 K	410.6
348.2 K	413.5
353.2 K	416.5
358.2 K	420.2
363.2 K	423.6
368.2 K	427.3
373.2 K	430.6
378.2 K	434.4
383.2 K	436.3

CCCCn1cc[n+](C)c1C.F[B-](F)(F)F [1-butyl-2,3-dimethylimidazolium tetrafluoroborate] + O
molar heat capacity at constant pressure [J/K/mol], [3]
Conditions	x1 = 0.2	x1 = 0.4	x1 = 0.6	x1 = 0.8	x1 = 1
303.2 K	146.9	217.5	284.4	343	–
308.2 K	147.2	218.2	285.6	344.2	–
313.2 K	147.8	219.3	287	346.3	397.3
318.2 K	148.4	220.4	288.6	348.5	398.8
323.2 K	149.1	221.7	290.3	351	400.6
328.2 K	149.8	223.2	292.1	353.2	403.3
333.2 K	150.4	224.1	293.5	355.6	405.4
338.2 K	151.1	225.2	295.7	358.1	407.8
343.2 K	151.7	226.4	297.6	360.8	410.6
348.2 K	152.4	227.7	299.5	363.5	413.5
353.2 K	153.1	229.2	301.7	366.3	416.5
358.2 K	–	–	–	–	420.2
363.2 K	–	–	–	–	423.6
368.2 K	–	–	–	–	427.3
373.2 K	–	–	–	–	430.6
378.2 K	–	–	–	–	434.4
383.2 K	–	–	–	–	436.3

CCCCn1cc[n+](C)c1.[Br-] [1-butyl-3-methylimidazolium bromide]
Conditions	Normal melting temperature [°C]
[1]	73.00

[2]
Conditions	molar heat capacity at constant pressure [J/K/mol]
353.2 K	334.8
358.2 K	338.1
363.2 K	341.1
368.2 K	344.6
373.2 K	347.5
378.2 K	350.6
383.2 K	354.1
388.2 K	356.7
393.2 K	359.9
398.2 K	363.4
403.2 K	366.4

CCCCn1cc[n+](C)c1.[Cl-] [1-butyl-3-methylimidazolium chloride]
Conditions	Normal melting temperature [°C]
[1]	57.00

[2]
Conditions	molar heat capacity at constant pressure [J/K/mol]
343.2 K	337.2
348.2 K	340.3
353.2 K	343.3
358.2 K	347.1
363.2 K	350.6
368.2 K	354.3
373.2 K	357.6
378.2 K	361
383.2 K	364.3
388.2 K	367.4
393.2 K	370.7
398.2 K	374
403.2 K	376.8

CCCCn1cc[n+](C)c1.[Cl-] [1-butyl-3-methylimidazolium chloride] + O
molar heat capacity at constant pressure [J/K/mol], [3]
Conditions	x1 = 0.2	x1 = 0.4	x1 = 0.6	x1 = 0.8	x1 = 1
303.2 K	125.6	170.2	218.6	272.6	–
308.2 K	126.7	171.6	220	274.4	–
313.2 K	127.7	173	221.8	276.3	–
318.2 K	128.6	174.5	223.9	279.3	–
323.2 K	129.9	176.2	225.9	280.9	–
328.2 K	130.9	177.6	228	282.9	–
333.2 K	131.8	179	230	285.5	–
338.2 K	133.1	180.5	232	288.2	–
343.2 K	133.8	182.2	234.1	290.5	337.2
348.2 K	135.2	183.6	236.4	293.1	340.3
353.2 K	136	185.9	238.6	296.3	343.3
358.2 K	–	–	–	–	347.1
363.2 K	–	–	–	–	350.6
368.2 K	–	–	–	–	354.3
373.2 K	–	–	–	–	357.6
378.2 K	–	–	–	–	361
383.2 K	–	–	–	–	364.3
388.2 K	–	–	–	–	367.4
393.2 K	–	–	–	–	370.7
398.2 K	–	–	–	–	374
403.2 K	–	–	–	–	376.8
